Experimental data from patent publication US4544659A, “Schistosomicidal acridanone hydrazones” (Hoffman-La Roche Inc., priority 1982, dated 1985).

Key:
[1] = Acute toxicity, single oral administration to mice; conditions: mouse, in vivo, p.o.
Source text: (§1) The Table which follows contains the results obtained with representative compounds of the invention. In the Table there are given VD50 in mg/kg p.o. and the LD50 in mg/kg in the case of single oral administration to mice.

Schistosoma mansoni = assay: Schistosomicidal activity in infected mice (reduction in number of worms, single peroral treatment); format: in vivo, Schistosoma mansoni (Liberia strain) in albino mice; conditions: po, read-out: VD50 (vermicidal dosage which brings about a 50 percent reduction in the number of worms)
Description: Albino mice weighing 15-18 g are infected subcutaneously with 60±5 cercaria of a Liberia strain of Schistosoma mansoni. Forty-six (46) days after infection, the animals are treated once perorally with the test substance. There are 5-10 animals used per substance and dosage. There are 10 untreated animals used as controls. The autopsies are carried out after 60 days. Whereupon worm pairs and individual worms in the mesenteric veins, portal vein and liver are dissected out and counted.
For the evaluation, the percentage reduction in parasites in treated animals in comparison to untreated control animals is calculated. The VD50 is determined according to the Probit method. The VD50 is that vermicidal dosage which brings about a 50 percent reduction in the number of worms.
as §1

| SMILES | LD50 [1] [mg/kg] | ED50 (Schistosoma mansoni) [mg/kg] |
| --- | --- | --- |
| c1ccc2c(=NN=C3NCCS3)c3ccccc3[nH]c2c1 [9-acridanone (2-thiazolidinylidene)hydrazone] | 1250 to 2500 | 26 |
| Cl.Cn1c2ccccc2c(=NNc2nccs2)c2ccccc21 [10-methyl-9-acridanone (2-thiazolyl)hydrazone hydrochloride] | > 5000 | 9 |
